The values below come from US20090036448A1, “PYRIMIDINE DERIVATIVES AND METHODS OF TREATMENT RELATED TO THE USE THEREOF” (TAISHO PHARMECUTICAL CO., LTD., priority 2004, published 2009).

Sequence of MCH receptor (Q99705 whole entry): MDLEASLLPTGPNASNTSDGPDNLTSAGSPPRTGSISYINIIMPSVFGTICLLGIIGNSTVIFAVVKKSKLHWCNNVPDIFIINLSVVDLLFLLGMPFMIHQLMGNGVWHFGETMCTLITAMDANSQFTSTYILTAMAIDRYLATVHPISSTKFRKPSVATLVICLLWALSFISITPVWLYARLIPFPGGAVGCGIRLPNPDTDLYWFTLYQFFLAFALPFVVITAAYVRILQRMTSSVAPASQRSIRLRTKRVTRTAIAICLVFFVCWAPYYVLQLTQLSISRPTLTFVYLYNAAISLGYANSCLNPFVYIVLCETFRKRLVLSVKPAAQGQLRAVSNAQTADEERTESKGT

For the experiment, the target named is MCH receptor (Homo sapiens, UniProt Q99705). As to the kind of experiment: Receptor binding assay with Radiolabelled MCH Ligand. On the set-up: expressed in transfected cells; host or cells: 293 cells (human kidney, ATCC), transient transfection; crude membranes. The following applies: class by percent of control at 10^-7 M or IC50. In outline:
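Membranes from 293 cells transiently transfected with human MCH receptor competed test compounds against a radiolabelled MCH ligand in Tris-HCl pH 7.4 with MgCl2 and EDTA for 60–120 min at room temperature. Filtration and scintillation counting followed, with cold MCH defining nonspecific binding. IC50 came from logit-log plots of %B/B0, and Ki from the Cheng-Prusoff equation.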
For `CC(=O)c1ccc(S(=O)(=O)N[C@H]2CC[C@@H](Nc3cc(N(C)C)nc(C)n3)CC2)cc1` [compound 484], the class is recorded as 3 (Class 3: The value of percent of control at 10^−7 M was more than 60% or the value of IC50 was more than 200 nM.).
The value for `Cc1nc(N[C@H]2CC[C@@H](NC(=O)COc3ccccc3)CC2)cc(N(C)C)n1` [compound 234] was 3 (Class 3: The value of percent of control at 10^−7 M was more than 60% or the value of IC50 was more than 200 nM.); that for `Cc1nc(N[C@H]2CC[C@@H](NC(=O)CCC(=O)c3ccc(S(C)(=O)=O)cc3)CC2)cc(N(C)C)n1` [compound 292] was 3 (Class 3: The value of percent of control at 10^−7 M was more than 60% or the value of IC50 was more than 200 nM.).
The value for `Cc1nc(N[C@H]2CC[C@@H](NC(=O)c3ccccc3C(=O)N[C@@H](C)c3ccccc3)CC2)cc(N(C)C)n1` [compound 328] was 3 (Class 3: The value of percent of control at 10^−7 M was more than 60% or the value of IC50 was more than 200 nM.); that for `Cc1nc(N[C@H]2CC[C@@H](NC(=O)c3cnn(C)c3Cl)CC2)cc(N(C)C)n1` [compound 272] was 3 (Class 3: The value of percent of control at 10^−7 M was more than 60% or the value of IC50 was more than 200 nM.).
Take `Cc1nc(N[C@H]2CC[C@@H](NCc3cc(C(C)(C)C)nn3Cc3ccccc3)CC2)cc(N(C)C)n1` [compound 407]: the class was 3 (Class 3: The value of percent of control at 10^−7 M was more than 60% or the value of IC50 was more than 200 nM.).
For `Cc1nc(N[C@H]2CC[C@@H](NS(=O)(=O)c3ccc(Br)s3)CC2)cc(N(C)C)n1` [compound 520], the class is 3 (Class 3: The value of percent of control at 10^−7 M was more than 60% or the value of IC50 was more than 200 nM.).
Take `Cc1nc(N[C@H]2CC[C@@H](NS(=O)(=O)c3cccc(Br)c3)CC2)cc(N(C)C)n1` [compound 500]: the class is recorded as 3 (Class 3: The value of percent of control at 10^−7 M was more than 60% or the value of IC50 was more than 200 nM.).
With `Cc1nc(N[C@H]2CC[C@@H](NC(=O)c3ccno3)CC2)cc(N(C)C)n1` [compound 223] the figure was 3 (Class 3: The value of percent of control at 10^−7 M was more than 60% or the value of IC50 was more than 200 nM.); with `Cc1nc(N[C@H]2CC[C@@H](NS(=O)(=O)Cc3ccccc3[N+](=O)[O-])CC2)cc(N(C)C)n1` [compound 475], 3 (Class 3: The value of percent of control at 10^−7 M was more than 60% or the value of IC50 was more than 200 nM.); with `COc1ccc(C(=O)N[C@H]2CC[C@@H](Nc3cc(N(C)C)nc(C)n3)CC2)cc1OC` [compound 219], 3 (Class 3: The value of percent of control at 10^−7 M was more than 60% or the value of IC50 was more than 200 nM.).
With `Cc1cc(C)c(NC(=S)N[C@H]2CC[C@@H](Nc3cc(N(C)C)nc(C)n3)CC2)c(C)c1` [compound 437, N-(cis-4-{[6-(dimethylamino)-2-methylpyrimidin-4-yl]amino}cyclohexyl)-N′-mesitylthiourea] the figure was 2 (Class 2: The value of percent of control at 10^−7 M was from 40% to 60% or the value of IC50 was from 50 nM to 200 nM.); with `CSc1ncccc1C(=O)N[C@H]1CC[C@@H](Nc2cc(N(C)C)nc(C)n2)CC1` [compound 226], 3 (Class 3: The value of percent of control at 10^−7 M was more than 60% or the value of IC50 was more than 200 nM.).
The value for `CCc1cccc(C)c1NC(=O)N[C@H]1CC[C@@H](Nc2cc(N(C)C)nc(C)n2)CC1` [compound 421] was 3 (Class 3: The value of percent of control at 10^−7 M was more than 60% or the value of IC50 was more than 200 nM.).
As for `Cc1nc(N[C@H]2CC[C@@H](NS(=O)(=O)c3cccc4cccnc34)CC2)cc(N(C)C)n1` [compound 522], the class was 3 (Class 3: The value of percent of control at 10^−7 M was more than 60% or the value of IC50 was more than 200 nM.).
With `CCCCCCCCS(=O)(=O)N[C@H]1CC[C@@H](Nc2cc(N(C)C)nc(C)n2)CC1` [compound 480] the figure was 3 (Class 3: The value of percent of control at 10^−7 M was more than 60% or the value of IC50 was more than 200 nM.); with `Cc1nc(N[C@H]2CC[C@@H](NCc3ccc(N(C)C)cc3)CC2)cc(N(C)C)n1` [compound 368], 3 (Class 3: The value of percent of control at 10^−7 M was more than 60% or the value of IC50 was more than 200 nM.); with `Cc1nc(N[C@H]2CC[C@@H](NC(=O)COc3c(F)c(F)c(F)c(F)c3F)CC2)cc(N(C)C)n1` [compound 244], 3 (Class 3: The value of percent of control at 10^−7 M was more than 60% or the value of IC50 was more than 200 nM.).
The value for `Cc1nc(N[C@H]2CC[C@@H](NC(=O)c3ccc(F)c(Cl)c3)CC2)cc(N(C)C)n1` [compound 256, 3-chloro-N-(cis-4-{[6-(dimethylamino)-2-methylpyrimidin-4-yl]amino}cyclohexyl)-4-fluorobenzamide] was 1 (Class 1: The value of percent of control at 10^−7 M was less than 40% or the value of IC50 was less than 50 nM.); that for `Cc1nc(N[C@H]2CC[C@@H](NC(=O)OCC(Cl)(Cl)Cl)CC2)cc(N(C)C)n1` [compound 470] was 3 (Class 3: The value of percent of control at 10^−7 M was more than 60% or the value of IC50 was more than 200 nM.).
The value for `Cc1nc(N[C@H]2CC[C@@H](NC(=O)c3ccccc3I)CC2)cc(N(C)C)n1` [compound 224] was 3 (Class 3: The value of percent of control at 10^−7 M was more than 60% or the value of IC50 was more than 200 nM.); that for `Cc1nc(N[C@H]2CC[C@@H](NS(=O)(=O)c3ccc(-c4ccon4)s3)CC2)cc(N(C)C)n1` [compound 517] was 3 (Class 3: The value of percent of control at 10^−7 M was more than 60% or the value of IC50 was more than 200 nM.); that for `Cc1nc(N[C@H]2CC[C@@H](NC(=O)c3ccccc3-c3ccc(C(F)(F)F)cc3)CC2)cc(N(C)C)n1` [compound 307] was 3 (Class 3: The value of percent of control at 10^−7 M was more than 60% or the value of IC50 was more than 200 nM.).
In the case of `CCc1cccc(CC)c1NC(=S)N[C@H]1CC[C@@H](Nc2cc(N(C)C)nc(C)n2)CC1` [compound 438, N-(2,6-diethylphenyl)-N′-(cis-4-{[6-(dimethylamino)-2-methylpyrimidin-4-yl]amino}cyclohexyl)thiourea], the class is reported as 2 (Class 2: The value of percent of control at 10^−7 M was from 40% to 60% or the value of IC50 was from 50 nM to 200 nM.).
With `Cc1nc(N[C@H]2CC[C@@H](NCCOc3ccc(C(C)(C)C)cc3)CC2)cc(N(C)C)n1` [compound 400] the figure was 3 (Class 3: The value of percent of control at 10^−7 M was more than 60% or the value of IC50 was more than 200 nM.); with `COC(=O)c1ccc(C(=O)N[C@H]2CC[C@@H](Nc3cc(N(C)C)nc(C)n3)CC2)cc1` [compound 227], 3 (Class 3: The value of percent of control at 10^−7 M was more than 60% or the value of IC50 was more than 200 nM.); with `Cc1nc(N[C@H]2CC[C@@H](NC(=O)c3cc4ccccc4s3)CC2)cc(N(C)C)n1` [compound 203], 3 (Class 3: The value of percent of control at 10^−7 M was more than 60% or the value of IC50 was more than 200 nM.).
Consider `Cc1nc(N[C@H]2CC[C@@H](NC(=O)C3C[C@@H](c4ccccc4)CC[C@H]3C(=O)c3ccccc3)CC2)cc(N(C)C)n1` (stereo partly shown) [compound 351], for which the class is reported as 3 (Class 3: The value of percent of control at 10^−7 M was more than 60% or the value of IC50 was more than 200 nM.).
With `Cc1nc(N[C@H]2CC[C@@H](NS(=O)(=O)c3ccc4c(c3)CN(C(=O)C(F)(F)F)CC4)CC2)cc(N(C)C)n1` [compound 509], the class was 3 (Class 3: The value of percent of control at 10^−7 M was more than 60% or the value of IC50 was more than 200 nM.).
Take `Cc1ccc(S(=O)(=O)n2ccc(C(=O)N[C@H]3CC[C@@H](Nc4cc(N(C)C)nc(C)n4)CC3)c2)cc1` [compound 342]: the class is recorded as 3 (Class 3: The value of percent of control at 10^−7 M was more than 60% or the value of IC50 was more than 200 nM.).
With `Cc1nc(N[C@H]2CC[C@@H](NC(=O)C(=O)c3ccccc3)CC2)cc(N(C)C)n1` [compound 349] the figure was 3 (Class 3: The value of percent of control at 10^−7 M was more than 60% or the value of IC50 was more than 200 nM.).
The value for `COc1ccc(NC(=O)N[C@H]2CC[C@@H](Nc3cc(N(C)C)nc(C)n3)CC2)cc1OC1CCCC1` [compound 427] was 3 (Class 3: The value of percent of control at 10^−7 M was more than 60% or the value of IC50 was more than 200 nM.).
For the compound `COc1ccc(NC(=S)N[C@H]2CC[C@@H](Nc3cc(N(C)C)nc(C)n3)CC2)c(OC)c1` [compound 444], the class is 3 (Class 3: The value of percent of control at 10^−7 M was more than 60% or the value of IC50 was more than 200 nM.).
With `Cc1nc(N[C@H]2CC[C@@H](NC(=O)CNc3ccccc3)CC2)cc(N(C)C)n1` [compound 303] the figure was 3 (Class 3: The value of percent of control at 10^−7 M was more than 60% or the value of IC50 was more than 200 nM.); with `Cc1nc(N[C@H]2CC[C@@H](NC(=O)CCCc3ccccc3)CC2)cc(N(C)C)n1` [compound 337], 3 (Class 3: The value of percent of control at 10^−7 M was more than 60% or the value of IC50 was more than 200 nM.).
In the case of `Cc1nc(N[C@H]2CC[C@@H](NC(=O)c3cn(S(=O)(=O)c4ccccc4)c4ccccc34)CC2)cc(N(C)C)n1` [compound 348], the class is recorded as 3 (Class 3: The value of percent of control at 10^−7 M was more than 60% or the value of IC50 was more than 200 nM.).
For `Cc1nc(N[C@H]2CC[C@@H](NC(=O)Cc3ccccc3C(=O)Nc3ccc(OC(F)(F)F)cc3)CC2)cc(N(C)C)n1` [compound 297], the class is 3 (Class 3: The value of percent of control at 10^−7 M was more than 60% or the value of IC50 was more than 200 nM.).
